Laboratory results as given in patent US8211695B2, “Isolated transgenic mammalian neural cell for detection of a sample containing a chemical substance damage to neurological system or selection of drugs for treating neurodegenerative disorders” (Taipei Medical University, priority 2010, dated 2012).

Tested on: AhR
Test: DRE driven luciferase activity of C6 DRE stable clone (pGL-2 pro/DRE) and pGL2 control cell line
Format: cell-based, rat
Details: C6 glioma cells, pGL-2 pro/DRE stable clone versus pGL2 control cell line; FIG. 1
Source text: The plasmid pGL-2 pro/DRE was constructed by inserting a synthesized DNA fragment containing three rat dioxin responsive element (DRE, […] CGCAACTCGCTAGCATA; SEQ ID NO:1) between the KpnI and NheI sites of pGL2-promoter (pGL2 pro). To generate pGL-2 pro/DRE stable clones, plasmids pGL-2 pro/DRE and pCMV-Tag 2B were co-transfected into C6 glioma cells by Lipofectamine™ 2000. Meanwhile, plasmid pGL-2 pro and pCMV-Tag 2B were followed the same conditions to generate pGL-2 control cell line. These transfected cells were selected by Geneticin® (G418, 500 μg/ml) for 18 days. The stable clones of C6 cells were obtained and maintained in DMEM with 10% FBS and G418. To examine the stably insertion of pGL-2 pro/DRE or pGL-2 pro, the G418 resistant cells were harvested to extracted genomic DNA for polymerase chain reaction (PCR). The inserted DNA was confirmed to amplify 392 bps for pGL-2 pro/DRE stable insertion or 324 bps for pGL-2 pro (pGL-2) stable insertion, respectively. Finally, the metabolic degradable AhR agonist, 3-methylcholanthere (3MC), was used to examine the luciferase activity of pGL-2 pro/DRE C6 stable clones.
The metabolic degradable AhR agonist, 3-methylcholanthere (3MC), was used to examine the DRE driven luciferase activity of C6 DRE stable clone and pGL2 control cell line.

Cc1ccc2cc3c(ccc4ccccc43)c3c2c1CC3 [3MC, 3-methylcholanthere]
DRE driven luciferase activity (luminescence): increase luminescence in a dose response only in DRE stable clone
